For the first test, the target named is T1, 3-beta-hydroxysteroid-Delta(8),Delta(7)-isomerase (Homo sapiens, UniProt Q15125). The test is described as follows: Determination of Binding Affinity to EBP-7-Dehydrocholesterol Reductase. As to the method:
Compounds were prepared in a 96-well U bottom plate using an Echo550 machine and 10 mM compound DMSO stock solution, followed by an 8-dose 5-fold serial dilutions protocol with final testing compound concentration ranging from 0.06 to 5000 nM, with DMSO back fill to 100 nL/well and n=2. […] The UniFilter-96 GF/B plates were pre-treated by adding 50 μl/well of 0.3% (v/v) PEI to UniFilter-96 GF/B plates. The plates were sealed and incubated at 4° C. for 3 hrs. Then, the plates were washed with ice-cold assay buffer 3 times. The radioligand binding assay was prepared by adding assay buffer diluted hEBP-DHCR7 membrane at 66.7 μg/ml x 150 μl/well into the 96-well compound plate to reach 10 μg membrane per well. Then, the assay buffer diluted [3H]-Compound 118A* was added at 25 nM×50 μl/well. Following this, the plate was centrifuged at 1000 rpm for 30 secs. The plate was then sealed and agitated at 600 rpm at 22° C. for 5 min, and then incubated at 22° C. for 3 hrs. The incubation was stopped by transferring the binding solution to the pre-treated UniFilter-96 GF/B plate, vacuum filtrated, and then washed four times with ice-cold assay buffer. Following this, the plates were dried at 37° C. for 45 min. The plates were then sealed at the bottom. 40 μl/well of scintillation cocktail was added to the plates. A MicroBeta2 microplate counter was then used to read the plate and analyze the data. For reference and test compounds, the results are expressed as % Inhibition, using the normalization equation: N=100-100×(U−C2)/(C1−C2), where U is the unknown value, C1 is the average of high controls, and C2 is the average value of low controls. The IC50 was determined by fitting percentage of inhibition as a function of compound concentrations with Hill equation using XLfit.
T1 sequence (Q15125 whole entry): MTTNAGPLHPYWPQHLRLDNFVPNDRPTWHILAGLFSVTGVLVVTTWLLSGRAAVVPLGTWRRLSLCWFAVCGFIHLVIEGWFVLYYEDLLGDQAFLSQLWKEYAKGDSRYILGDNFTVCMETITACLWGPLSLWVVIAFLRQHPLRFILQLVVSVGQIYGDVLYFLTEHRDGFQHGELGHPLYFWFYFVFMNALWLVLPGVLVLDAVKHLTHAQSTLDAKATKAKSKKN
With `O=S1(=O)CC2(CCN(CCCc3ccc(C(F)(F)F)cc3)C2)C1` [US20240400579, Example 113], the Ki – broadly, the equilibrium dissociation constant of an inhibitor or competing ligand from its target – was 9.45 nM. On the same count and under the same terms, the result for `C[C@H](Cc1ccc(C2CCCCO2)c(Cl)c1)CN1CCC2(C1)CS(=O)(=O)C2` (stereo partly specified) [US20240400579, Example 124A] reads 18.5 nM. On the same count and under the same terms, the figure for `C[C@@H](Cc1ccc([C@@H]2CCCCO2)c(Cl)c1)CN1CCC2(C1)CS(=O)(=O)C2` [US20240400579, Example 124B] is 25.3 nM; for `CC(C)(Cc1ccc(C(F)(F)F)cc1)CN1CCC2(C1)CS(=O)(=O)C2` [US20240400579, Example 125] it is 4.02 nM. Take `O=S1(=O)CC2(CCN(CCOc3cnc(C(F)(F)F)c(Cl)c3)CC2)C1` [US20240400579, Example 242]: the Ki was determined as 13.1 nM.

A further test has as its target T1, 3-beta-hydroxysteroid-Delta(8),Delta(7)-isomerase. The test is described as follows: Determination of Binding Affinity to EBP. On the procedure: This binding solution was centrifuged at 400 g for 5 minutes to collect the bead/membrane mixture. After re-suspending the pellet in binding buffer at the same calculated volume with 0.01% BSA (Sigma A1933), the bead/membrane mixture was added in 384-well low-binding surface plate (PerkinElmer Cat #6057480) at 25 i/well. Radioligand at different concentrations with and without the non-radio-labeled same ligand 5 uM (for nonspecific and total signal, respectively) was added to bring final volume to 50 i/well with DMSO concentration at 0.1%. At equilibrium (3 hours after ligand addition), radiometric signal CPM was counted by using a Microbeta2 microplate counter (Perkinelmer).
Compound `CC(C)(Cc1ccc(C(F)(F)F)cc1)CN1CCC2(C1)CS(=O)(=O)C2` [US20240400579, Example 125] displayed a Ki of 56 nM.

The record behind these values is BindingDB's records for patent US20240400579 (Genentech, 2024).
